# Laboratory results published in patent US11845782B2, “Relaxin fusion polypeptides and uses thereof” (MedImmune Limited, priority 2017, dated 2023).
# Where a chain is given by its changes, count along the chain named.
# B1: Fc-YTE-hRLX2-15-15AA: As Fc_hRLX2_15-15AA with YTE mutations in Fc; SEQ ID NO. 22 (protein)
# chain: DKTHTCPPCPAPELLGGPSVFLFPPKPKDTLYITREPEVTCVVVDVSHEDPEVKFNWYVDGVEVHNAKTKPREEQYNSTYRVVSVLTVLHQDWLNGKEYKCKVSNKALPAPIEKTISKAKGQPREPQVYTLPPSRDELTKNQVSLTCLVKGFYPSDIAVEWESNGQPENNYKTTPPVLDSDGSFFLYSKLTVDKSRWQQGNVFSCSVMHEALHNHYTQKSLSLSPGKGGGGSGGGGSGGGGSQLYSALANKCCHVGCTKRSLARFCGGGGSGGGGSGGGGSSWMEEVIKLCGRELVRAQIAICGMSTWS
# modifications: fusion protein
# B2: Fc-YTE-TM_hRLX2_15-15A: As Fc_hRLX2_15-15AA with YTE and TM mutations in Fc; SEQ ID NO. 24 (protein)
# chain: B1 chain with L14F, L15E, P111S
# modifications: fusion protein
# B3: Fc-YTE-FQQ_hRLX2_15-15A: As Fc_hRLX2_15-15AA with YTE and FQQ mutations in Fc; SEQ ID NO. 26 (protein)
# chain: B1 chain with L14F, L15Q, K102Q
# modifications: fusion protein
# Legend:
# [1] = tested on: isoproterenol-induced cardiac hypertrophy; test: Isoproterenol-induced cardiac hypertrophy and fibrosis in mice (Example 8); type: in vivo, C57BL/6J male mice; details: given concomitantly with isoproterenol 15 mg/kg/day, 2 weeks
# Protocol: A total of 6 study groups with n=8 mice (C57BL/6J male mice) per group were performed. The groups were: vehicle, Fc_hRLX2_15-15AA, isoproterenol, isoproterenol+enalapril, isoproterenol+recombinant human relaxin 2, and isoproterenol+Fc_hRLX2_15-15AA. Drugs and vehicle were delivered by Alzet minipumps (model 1002; rate: 0.25 μl/hr (±0.05), 6 μl one day @37° C.) or subcutaneous injection for Fc_hRLX2_15-15AA.
# Isoproterenol was made as follows: A 500 mM solution (123.9 mg/ml) freshly in 0.0002% Na-Asc saline, […] filtered). The final [Iso] concentration in minipump: 15 mg/kg/day=15 mg/247.72/6 μl/1000 g=10.1 mM per gram of body weight (BVV). Vehicle was 0.0002% Na-ascorbate, Sigma catalog #A7631.
# Enalapril was made as follows: Enalapril is used as maleate salt, MW of 492.52, Sigma catalog #E6888. A 200 mM stock solution (98.5 mg/ml) freshly in methanol, […] filtered. The final concentration in minipump: 2.5 mg/kg/day=2.5 mg/492.52/6 μl/1000 g=0.846 mM per gram of body weight (BVV), i.e., one minipump for 30 gram of mouse will need 19.0 μl of 200 mM Ena (150 μl×0.846/200 mM×30 g BW).
# Isoproterenol+Enalapril: Isoproterenol and enalapril made as described above were included in the pump.
# At the end of the study, body weight, heart weight, lung weight, and tibia length were measured. Additionally, histology and collagen assays were performed using the heart samples.
# Fibrosis was measured based on the detection of hydroxyproline (Total collagen assay, QuickZyme Biosciences). Histology (H & E and Masson Trichrome) was also carried out on formalin treated heart tissue following 2 weeks of treatments.
# [2] = tested on: VEGF expression in THP-1 cells; test: VEGF mRNA induction in THP-1 cells, quantitative real-time PCR (Example 4); type: cell-based, human; details: 0.01, 0.06, and 10 ng/ml; 2.5 h
# Protocol: The ability of the Relaxin 2 fusion polypeptides to induce the expression of VEGF, a known downstream target of Relaxin 2 (Xiao et al., 2013), was assayed. The expression of VEGF RNA in THP-1 cells (Catalogue number TIB-202, ATCC) was analyzed by quantitative real-time PCR. A total of […] was seeded in a 24-well flat bottom plate (Catalogue number 353226, Corning) in 400 μl test media (RPMI-1640 without phenol red, 0.5% FBS, 1% Pen/Strep and 0.05 mM of 2-mercaptoethanol). After 24 h incubation at 37° C., 5% CO2, human relaxin-2 (Catalogue number 3956-RN, R&D Systems) or Fc-hRelaxin-2 fusion polypeptides, were added to the cells in the plate for 2.5 h at 37° C. RNA isolation and purification from THP-1 cells was performed using Qiagen's QiaShredder (Catalogue number 79656, Qiagen) and RNA Plus Mini Kit (Catalogue number 74134, Qiagen), following the manufacturer's protocol. The mRNA concentrations were measured by NanoDrop (Thermofisher) and samples were normalized to the same starting concentration (range between RT-PCR set up; 50-20 ng/μl). […] The relative fold change in VEGF mRNA level was calculated by the comparative Ct method using GAPDH expression for normalization. Results were calculated as fold changes over no treatment control. […] Data was analyzed by paired two tailed t-test utilizing Prism GraphPad, V6.
# [3] = intravenous administration, cited from earlier work
# [4] = Mouse PK profile, FcRn transgenic mouse, Fc capture and Relaxin detection ELISA (Example 6); type: in vivo; details: IV or SC, 6 mg/kg
Molecule,isoproterenol-induced increase in cardiac hypertrophy (HW/TL) [1],isoproterenol-induced increase in fibrosis (collagen content) [1],half-life offered by the YTE mutations [4],further results
CCOC(=O)[C@H](CCc1ccccc1)N[C@@H](C)C(=O)N1CCC[C@H]1C(=O)O [enalapril],significantly attenuated,significantly attenuated,–,–
"rhRLX2: Recombinant human Relaxin-2, R&D Systems (catalogue 6586-RN-025; 3956-RN in VEGF assay), positive control; mature A/B chain array (chain 1 QLYSALANKCCHVGCTKRSLARFC; chain 2 DSWMEEVIKLCGRELVRAQIAICGMSTWS)",significantly attenuated,significantly attenuated,–,VEGF transcripts in THP-1 cells vs no treatment control [2]: significantly increased
serelaxin,–,–,–,"proportion of patients with significant blood pressure drop (>40 mm Hg) [3]: approximately one third; markers of cardiac, renal and hepatic damage and congestion ([3]; patients): improved"
B1,–,–,extended half-life,–
B2,–,–,extended half-life,–
B3,–,–,extended half-life,–
